EP4707280A1, “1,4-CINEOLE DERIVATIVE AND INTERMEDIATE THEREOF, HERBICIDE CONTAINING SAID DERIVATIVE AS ACTIVE INGREDIENT, METHOD FOR USING HERBICIDE, AND METHOD FOR PREPARING AGROCHEMICAL COMPOSITION” (HOKKO CHEMICAL INDUSTRY CO., LTD., priority 2023, dated 2024)

Columns and labels:
Type in all cases: in vivo
Scirpus juncoides [1] = experiment: Test Example 2: herbicidal effect test by application during growth period of paddy rice; details: Schoenoplectiella juncoides; 120 g per 10 ares; applied seven days after sowing, flooded pots; 14 days after application; read-out: weed inhibition rate
Summary of the method: (§1)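 Flooded paddy pot test, greenhouse. Seeds 30/species, 0–1 cm depth, water ~3 cm. EC diluted in water, dropper-applied 7 d post-sowing at 120 g a.i./10 a. Inhibition rate (%) read 14 d after treatment; n=2.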

[2] = system: Echinochloa crus-galli var. formosensis; experiment: as above; details: Echinochloa crus-galli; 120 g per 10 ares; applied seven days after sowing, flooded pots; 14 days after application; read-out: weed inhibition rate
Summary of the method: as §1

Scirpus juncoides [3] = experiment: Test Example 1: herbicidal effect test by soil application in paddy rice; details: Schoenoplectiella juncoides, soil, 336 h; 120 g active ingredient per 10 ares; applied immediately after sowing, flooded pots; 14 days after application; read-out: weed inhibition rate
Summary of the method: (§2)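 Weeds sown 0–1 cm deep (30 seeds each) into fertilized, puddled paddy soil in Wagner pots. Pots are flooded immediately, water held near 3 cm, and the diluted emulsifiable concentrate is dripped in at once, delivering 120 g active ingredient per 10 ares under glass-greenhouse management.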

[4] = system: Echinochloa crus-galli var. formosensis; experiment: as above; details: Echinochloa crus-galli, soil, 336 h; 120 g active ingredient per 10 ares; applied immediately after sowing, flooded pots; 14 days after application; read-out: weed inhibition rate
Summary of the method: as §2

Echinochloa crus-galli [5] = experiment: Test Example 4: herbicidal effect test by stem and leaf treatment in upland field; details: Echinochloa crus-galli; 120 g per 10 ares; sprayed seven days after sowing, upland soil; 14 days after application; read-out: weed inhibition rate
Digitaria ciliaris [6] = experiment: Test Example 3: herbicidal effect test by soil application in upland field; details: Digitaria ciliaris, 120 g per 10 ares, sprayed one day after sowing, 14 days after application, read-out: weed inhibition rate
Summary of the method: (§3)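 Pre-emergence test: seeds mixed into top 1 cm of alluvial loam upland soil in pots; emulsifiable concentrate diluted in water sprayed on soil one day after sowing at 100 L/10 a, 120 g a.i./10 a. Weed inhibition rate (%) scored at 14 days, in duplicate.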

Echinochloa crus-galli [7] = experiment: as above; details: Echinochloa crus-galli, 120 g per 10 ares, sprayed one day after sowing, 14 days after application, read-out: weed inhibition rate
Summary of the method: as §3

Digitaria ciliaris [8] = experiment: Test Example 8: herbicidal effect test by stem and leaf treatment in upland field (low dose); details: Digitaria ciliaris; 7.5 g per 10 ares; sprayed seven days after sowing, upland soil; 14 days after application; read-out: weed inhibition rate
Echinochloa crus-galli [9] = experiment: as above; details: Echinochloa crus-galli; 7.5 g per 10 ares; sprayed seven days after sowing, upland soil; 14 days after application; read-out: weed inhibition rate
Digitaria ciliaris [10] = experiment: Test Example 4: herbicidal effect test by stem and leaf treatment in upland field; details: Digitaria ciliaris; 120 g per 10 ares; sprayed seven days after sowing, upland soil; 14 days after application; read-out: weed inhibition rate
Digitaria ciliaris [11] = experiment: Test Example 7: herbicidal effect test by soil application in upland field (low dose); details: Digitaria ciliaris, 7.5 g per 10 ares, sprayed one day after sowing, 14 days after application, read-out: weed inhibition rate
Summary of the method: (§4)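 Read-out: weed inhibition rate (%) at 14 d post-treatment, duplicate pots per concentration. Seeds sown in the top 1 cm of upland alluvial loam; emulsifiable concentrate diluted in water and sprayed on the soil surface 1 d after sowing at 7.5 g a.i./10 a (100 L/10 a spray volume).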

Echinochloa crus-galli [12] = experiment: as above; details: Echinochloa crus-galli, 7.5 g per 10 ares, sprayed one day after sowing, 14 days after application, read-out: weed inhibition rate
Summary of the method: as §4

[13] = system: Echinochloa crus-galli var. formosensis; experiment: Test Example 6: herbicidal effect test by application during growth period of paddy rice (low dose); details: Echinochloa crus-galli; 7.5 g per 10 ares; applied seven days after sowing, flooded pots; 14 days after application; read-out: weed inhibition rate
Summary of the method: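 Paddy soil in flooded Wagner pots (about 3 cm water), weeds sown at 0–1 cm, 30 seeds each, grown in a glass greenhouse. Seven days after sowing, water-diluted emulsifiable concentrate was dropped into the water at 7.5 g active ingredient per 10 ares. Weed inhibition rate (%) was scored 14 days after application, in duplicate.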

[14] = system: Echinochloa crus-galli var. formosensis; experiment: Test Example 5: herbicidal effect test by soil application in paddy rice (low dose); details: Echinochloa crus-galli, soil, 336 h; 7.5 g per 10 ares; applied immediately after sowing, flooded pots; 14 days after application; read-out: weed inhibition rate
Summary of the method: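 Pre-emergence paddy test: seeds sown 0–1 cm (30 each), pots flooded ~3 cm, greenhouse. EC dilution dropped into water right after sowing, 7.5 g a.i./10 a. Duplicate pots; weed inhibition rate (%) by formula, day 14.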

CC#CCOC1CC2(C(C)C)OC1(C)CC2I (stereo not shown) [1-1402, 5-but-2-ynoxy-2-iodo-1-isopropyl-4-methyl-7-oxabicyclo[2.2.1]heptane]
≥ 80%: inhibition at 1200 g/ha (Scirpus juncoides [1]) | inhibition at 1200 g/ha [2] | pest or weed control at 1200 g/ha (Scirpus juncoides [3]) | pest or weed control at 1200 g/ha [4] | inhibition at 1200 g/ha (Echinochloa crus-galli [5]) | inhibition at 1200 g/ha (Digitaria ciliaris [6]) | inhibition at 1200 g/ha (Echinochloa crus-galli [7]) | inhibition at 75 g/ha (Digitaria ciliaris [8]) | inhibition at 75 g/ha (Echinochloa crus-galli [9]) | inhibition at 1200 g/ha (Digitaria ciliaris [10]) | inhibition at 75 g/ha (Digitaria ciliaris [11]) | inhibition at 75 g/ha (Echinochloa crus-galli [12]) | inhibition at 75 g/ha [13] | inhibition at 75 g/ha [14]

CC(C)[C@]12C[C@@H](OCc3ccsc3)[C@](C)(C[C@@H]1Cl)O2 [1-662, (1R,2S,4S,5R)-2-chloro-1-isopropyl-4-methyl-5-(3-thienylmethoxy)-7-oxabicyclo[2.2.1]heptane]
≥ 80%: inhibition at 1200 g/ha (Scirpus juncoides [1]) | inhibition at 1200 g/ha [2] | pest or weed control at 1200 g/ha (Scirpus juncoides [3]) | pest or weed control at 1200 g/ha [4] | inhibition at 1200 g/ha (Echinochloa crus-galli [5]) | inhibition at 1200 g/ha (Digitaria ciliaris [6]) | inhibition at 1200 g/ha (Echinochloa crus-galli [7]) | inhibition at 75 g/ha (Digitaria ciliaris [8]) | inhibition at 75 g/ha (Echinochloa crus-galli [9]) | inhibition at 1200 g/ha (Digitaria ciliaris [10]) | inhibition at 75 g/ha (Digitaria ciliaris [11]) | inhibition at 75 g/ha (Echinochloa crus-galli [12]) | inhibition at 75 g/ha [13] | inhibition at 75 g/ha [14]

CC(C)C12CC(OCc3cccs3)C(C)(CC1Br)O2 (stereo not shown) [1-1389, 5-bromo-1-methyl-4-isopropyl-2-(thiophen-2-ylmethoxy)-7-oxabicyclo[2.2.1]heptane]
≥ 80%: inhibition at 1200 g/ha (Scirpus juncoides [1]) | inhibition at 1200 g/ha [2] | pest or weed control at 1200 g/ha (Scirpus juncoides [3]) | pest or weed control at 1200 g/ha [4] | inhibition at 1200 g/ha (Echinochloa crus-galli [5]) | inhibition at 1200 g/ha (Digitaria ciliaris [6]) | inhibition at 1200 g/ha (Echinochloa crus-galli [7]) | inhibition at 75 g/ha (Digitaria ciliaris [8]) | inhibition at 75 g/ha (Echinochloa crus-galli [9]) | inhibition at 1200 g/ha (Digitaria ciliaris [10]) | inhibition at 75 g/ha (Digitaria ciliaris [11]) | inhibition at 75 g/ha (Echinochloa crus-galli [12]) | inhibition at 75 g/ha [13] | inhibition at 75 g/ha [14]

Cc1ccccc1CO[C@@H]1C[C@]2(C(C)C)O[C@@]1(C)C[C@@H]2Cl [1-9, (1R,2S,4S,5R)-2-chloro-1-isopropyl-4-methyl-5-(o-tolylmethoxy)-7-oxabicyclo[2.2.1]heptane]
≥ 80%: inhibition at 1200 g/ha (Scirpus juncoides [1]) | inhibition at 1200 g/ha [2] | pest or weed control at 1200 g/ha (Scirpus juncoides [3]) | pest or weed control at 1200 g/ha [4] | inhibition at 1200 g/ha (Echinochloa crus-galli [5]) | inhibition at 1200 g/ha (Digitaria ciliaris [6]) | inhibition at 1200 g/ha (Echinochloa crus-galli [7]) | inhibition at 75 g/ha (Digitaria ciliaris [8]) | inhibition at 75 g/ha (Echinochloa crus-galli [9]) | inhibition at 1200 g/ha (Digitaria ciliaris [10]) | inhibition at 75 g/ha (Digitaria ciliaris [11]) | inhibition at 75 g/ha (Echinochloa crus-galli [12]) | inhibition at 75 g/ha [13] | inhibition at 75 g/ha [14]

CC(C)C12CC(OCc3ccccc3F)C(C)(CC1I)O2 (stereo not shown) [1-1421, 2-[(2-fluorophenyl)methoxy]-5-iodo-1-methyl-4-isopropyl-7-oxabicyclo[2.2.1]heptane]
≥ 80%: inhibition at 1200 g/ha (Scirpus juncoides [1]) | inhibition at 1200 g/ha [2] | pest or weed control at 1200 g/ha (Scirpus juncoides [3]) | pest or weed control at 1200 g/ha [4] | inhibition at 1200 g/ha (Echinochloa crus-galli [5]) | inhibition at 1200 g/ha (Digitaria ciliaris [6]) | inhibition at 1200 g/ha (Echinochloa crus-galli [7]) | inhibition at 75 g/ha (Digitaria ciliaris [8]) | inhibition at 75 g/ha (Echinochloa crus-galli [9]) | inhibition at 1200 g/ha (Digitaria ciliaris [10]) | inhibition at 75 g/ha (Digitaria ciliaris [11]) | inhibition at 75 g/ha (Echinochloa crus-galli [12]) | inhibition at 75 g/ha [13] | inhibition at 75 g/ha [14]
